In ChEMBL document CHEMBL1145028, “Retroinverso analogue of the antiviral octapeptide C8 inhibits feline immunodeficiency virus in serum” (J Med Chem, 2003):
Values after ≈ are worked out from the molar mass of the structure shown.

Legend:
[1] = test system: Feline immunodeficiency virus; experiment: Concentration required to inhibit feline immunodeficiency virus (FIV) replication in 50% normal cat serum (NCS); assay type: functional, organism-based
[2] = test system: Feline immunodeficiency virus; experiment: Concentration required to inhibit feline immunodeficiency virus (FIV) replication in normal tissue culture medium; assay type: functional, organism-based

| Compound | IC50 [1] [µg/mL] | IC50 [2] [µg/mL] |
| --- | --- | --- |
| CC[C@@H](C)[C@@H](NC(C)=O)C(=O)N[C@H](Cc1c[nH]c2ccccc12)C(=O)NCC(=O)N[C@@H](C(=O)N[C@H](Cc1c[nH]c2ccccc12)C(=O)N[C@H](CC(=O)O)C(=O)N[C@H](CCC(=O)O)C(=O)N[C@H](Cc1c[nH]c2ccccc12)C(N)=O)C(C)C | 0.8 (≈ 0.707 µM) | 0.63 (≈ 0.557 µM) |
| Ac-WEDWVGWI-NH2 | 5.21 | 0.15 |
